molecular target: Substance-P receptor (Homo sapiens, UniProt P25103); test: Inhibitory activity against Tachykinin receptor 1
Sequence (P25103 whole entry): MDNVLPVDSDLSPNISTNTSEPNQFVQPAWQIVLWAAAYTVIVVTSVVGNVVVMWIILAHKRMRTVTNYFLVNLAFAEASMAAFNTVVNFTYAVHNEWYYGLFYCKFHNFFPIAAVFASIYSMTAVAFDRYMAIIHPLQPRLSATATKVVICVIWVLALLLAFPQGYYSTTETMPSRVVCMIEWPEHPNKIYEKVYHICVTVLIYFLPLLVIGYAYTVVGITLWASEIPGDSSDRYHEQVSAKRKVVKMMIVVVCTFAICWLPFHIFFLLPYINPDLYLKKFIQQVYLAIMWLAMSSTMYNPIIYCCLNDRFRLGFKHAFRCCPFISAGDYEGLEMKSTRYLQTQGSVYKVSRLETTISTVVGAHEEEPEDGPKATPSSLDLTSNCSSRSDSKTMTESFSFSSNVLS

| Compound | IC50 |
| --- | --- |
| COc1ccccc1C(CNC(=O)Cc1cc(C)cc(C)c1)N1CCN(C2CCCCC2)CC1 (stereo unspecified) | 15 nM |
| O=C(Cc1cc(C(F)(F)F)cc(C(F)(F)F)c1)NCC(c1cccc2ccccc12)N1CCN(C2CCCCC2)CC1 (stereo unspecified) | 2.8 nM |
| O=C(Cc1cc(C(F)(F)F)cc(C(F)(F)F)c1)NCC(c1ccc(F)c(Cl)c1)N1CCC(N2CCCCC2)CC1 (stereo unspecified) | 2.9 nM |
| COc1ccc(C(CNC(=O)Cc2cc(C(F)(F)F)cc(C(F)(F)F)c2)N2CCC(N3CCCCC3)CC2)c(OC)c1OC (stereo unspecified) | 210 nM |
| CN(CC(c1ccc(F)cc1Cl)N1CCC(N2CCCCC2)CC1)C(=O)Cc1cc(C(F)(F)F)cc(C(F)(F)F)c1 (stereo unspecified) | 1.5 nM |
| O=C(Cc1cc(C(F)(F)F)cc(C(F)(F)F)c1)NCC(c1ccccc1)N1CCC(N2CCCCC2)CC1 (stereo unspecified) | 5.4 nM |
| CN(CC(c1ccc(Cl)c(Cl)c1)N1CCC(N2CCCCC2)CC1)C(=O)Cc1cc(C(F)(F)F)cc(C(F)(F)F)c1 (stereo unspecified) | 2.3 nM |
| CN(CC(c1ccc(F)c(F)c1F)N1CCC(N2CCCCC2)CC1)C(=O)Cc1cc(C(F)(F)F)cc(C(F)(F)F)c1 (stereo unspecified) | 1.8 nM |
| CC(C)N1CCN(C(CN(C)C(=O)Cc2cc(C(F)(F)F)cc(C(F)(F)F)c2)c2cccc3c2OCO3)CC1 (stereo unspecified) | 1.4 nM |
| O=C(Cc1cc(C(F)(F)F)cc(C(F)(F)F)c1)NCC(c1ccc2c(c1)OCCO2)N1CCC(N2CCCCC2)CC1 (stereo unspecified) | 140 nM |
| O=C(Cc1cc(C(F)(F)F)cc(C(F)(F)F)c1)NCC(C(c1ccccc1)c1ccccc1)N1CCC(N2CCCCC2)CC1 (stereo unspecified) | 130 nM |
| CN(CC(c1ccc(F)c(Cl)c1)N1CCC(N2CCCCC2)CC1)C(=O)Cc1cc(C(F)(F)F)cc(C(F)(F)F)c1 (stereo unspecified) | 1.7 nM |
| COc1ccccc1C(CNC(=O)Cc1cc(C)cc(C)c1)N1CCC(N2CCCCC2)CC1 (stereo unspecified) | 61 nM |
| COc1ccccc1C(CNC(=O)Cc1cc(C(F)(F)F)cc(C(F)(F)F)c1)N1CCC(O)(c2ccccc2)CC1 (stereo unspecified) | 130 nM |
| O=C(Cc1cc(C(F)(F)F)cc(C(F)(F)F)c1)NCC(c1cccc2ccccc12)N1CCC(N2CCCCC2)CC1 (stereo unspecified) | 14 nM |
| O=C(Cc1cc(C(F)(F)F)cc(C(F)(F)F)c1)NCC(c1ccccc1Br)N1CCC(N2CCCCC2)CC1 (stereo unspecified) | 0.88 nM |
| COc1ccc(CC(=O)NCC(c2ccccc2OC)N2CCN(C3CCCCC3)CC2)cc1 (stereo unspecified) | 2200 nM |
| COc1ccccc1C(CNC(=O)Cc1ccc(Cl)cc1)N1CCN(C2CCCCC2)CC1 (stereo unspecified) | 850 nM |
| CC(C)C1CCN(C2CCN(C(CN(C)C(=O)Cc3cc(C(F)(F)F)cc(C(F)(F)F)c3)c3ccc(Cl)c(Cl)c3)CC2)CC1 (stereo unspecified) | 15 nM |
| COc1ccc(C(CN(C)C(=O)Cc2cc(C(F)(F)F)cc(C(F)(F)F)c2)N2CCC(N3CCCCC3)CC2)c(OC)c1OC (stereo unspecified) | 12 nM |
| CN(CC(Cc1ccccc1)N1CCC(N2CCCCC2)CC1)C(=O)Cc1cc(C(F)(F)F)cc(C(F)(F)F)c1 (stereo unspecified) | 32 nM |

| Compound | IC50 |
| --- | --- |
| Cc1c(F)cccc1C(CNC(=O)Cc1cc(C(F)(F)F)cc(C(F)(F)F)c1)N1CCC(N2CCCCC2)CC1 (stereo unspecified) | 3 nM |
| O=C(Cc1cc(C(F)(F)F)cc(C(F)(F)F)c1)NCC(c1ccc(F)cc1Cl)N1CCC(N2CCCCC2)CC1 (stereo unspecified) | 1.7 nM |
| CC(C)N1CCN(C(CNC(=O)Cc2cc(C(F)(F)F)cc(C(F)(F)F)c2)c2cccc3c2OCO3)CC1 (stereo unspecified) | 6.9 nM |
| CN(CC(c1cccc2c1OCO2)N1CCN(C2CCCCC2)CC1)C(=O)Cc1cc(C(F)(F)F)cc(C(F)(F)F)c1 (stereo unspecified) | 1.3 nM |
| O=C(Cc1cc(C(F)(F)F)cc(C(F)(F)F)c1)NCC(c1cccc2c1OCO2)N1CCN(C2CCCCC2)CC1 (stereo unspecified) | 1.6 nM |
| COc1ccccc1CC(=O)N(C)CC(c1cccc2c1OCO2)N1CCC(N2CCCCC2)CC1 (stereo unspecified) | 16 nM |
| COc1ccccc1C(CNC(=O)Cc1ccc(Cl)c(Cl)c1)N1CCN(C2CCCCC2)CC1 (stereo unspecified) | 280 nM |
| O=C(Cc1cc(C(F)(F)F)cc(C(F)(F)F)c1)NCC(c1ccc(Cl)c(Cl)c1)N1CCC(N2CCCCC2)CC1 (stereo unspecified) | 0.75 nM |
| CN(CC(c1ccc2c(c1)OCO2)N1CCC(N2CCCCC2)CC1)C(=O)Cc1cc(C(F)(F)F)cc(C(F)(F)F)c1 (stereo unspecified) | 4.8 nM |
| CN(CC(c1ccc2c(c1)OCCO2)N1CCC(N2CCCCC2)CC1)C(=O)Cc1cc(C(F)(F)F)cc(C(F)(F)F)c1 (stereo unspecified) | 8.9 nM |
| COc1cccc(C(CNC(=O)Cc2cc(C(F)(F)F)cc(C(F)(F)F)c2)N2CCC(N3CCCCC3)CC2)c1OC (stereo unspecified) | 7.6 nM |
| O=C(Cc1cc(C(F)(F)F)cc(C(F)(F)F)c1)NCC(Cc1ccccc1)N1CCC(N2CCCCC2)CC1 (stereo unspecified) | 81 nM |
| CN(CC(c1cccc2c1OCO2)N1CCC(N2CCCCC2)CC1)C(=O)Cc1cc(C(F)(F)F)cc(C(F)(F)F)c1 (stereo unspecified) | 1.8 nM |
| COc1ccccc1C(CNC(=O)Cc1ccccc1C(F)(F)F)N1CCN(C2CCCCC2)CC1 (stereo unspecified) | 270 nM |
| O=C(Cc1cc(C(F)(F)F)cc(C(F)(F)F)c1)NCC(c1cccc(C(F)(F)F)c1F)N1CCC(N2CCCCC2)CC1 (stereo unspecified) | 1.7 nM |
| CC(C)Oc1cccc(CC(=O)NCC(c2ccc(Cl)c(Cl)c2)N2CCC(N3CCCCC3)CC2)c1 (stereo unspecified) | 5 nM |
| CN(CC(c1cc(Cl)cc(Cl)c1Cl)N1CCC(N2CCCCC2)CC1)C(=O)Cc1cc(C(F)(F)F)cc(C(F)(F)F)c1 (stereo unspecified) | 3 nM |
| O=C(Cc1cc(C(F)(F)F)cc(C(F)(F)F)c1)NCC(c1cc(Cl)cc(Cl)c1Cl)N1CCC(N2CCCCC2)CC1 (stereo unspecified) | 6.4 nM |
| Cc1cc(C)cc(CC(=O)N(C)CC(c2cccc3c2OCO3)N2CCC(N3CCCCC3)CC2)c1 (stereo unspecified) | 2.9 nM |
| O=C(Cc1cc(C(F)(F)F)cc(C(F)(F)F)c1)NCC(c1ccc(Cl)c(Cl)c1)N1CCC(N(CCO)CCO)CC1 (stereo unspecified) | 5.2 nM |
| Cc1c(F)cccc1C(CN(C)C(=O)Cc1cc(C(F)(F)F)cc(C(F)(F)F)c1)N1CCC(N2CCCCC2)CC1 (stereo unspecified) | 1.4 nM |

| Compound | IC50 |
| --- | --- |
| COc1cccc(C(CN(C)C(=O)Cc2cc(C(F)(F)F)cc(C(F)(F)F)c2)N2CCC(N3CCCCC3)CC2)c1OC (stereo unspecified) | 10 nM |
| COc1cccc(C(CNC(=O)Cc2cc(C(F)(F)F)cc(C(F)(F)F)c2)N2CCC(N3CCCCC3)CC2)c1 (stereo unspecified) | 1.5 nM |
| COc1ccccc1C(CNC(=O)Cc1cccc(OC(C)C)c1)N1CCN(C2CCCCC2)CC1 (stereo unspecified) | 130 nM |
| O=C(Cc1cc(C(F)(F)F)cc(C(F)(F)F)c1)N1CCCCC1C(CN1CCC(N2CCCCC2)CC1)c1ccccc1 (stereo unspecified) | 1500 nM |
| COc1cc(C(=O)N(C)CC(c2cccc3c2OCO3)N2CCC(N3CCCCC3)CC2)cc(OC)c1OC (stereo unspecified) | 37 nM |
| COc1ccccc1C(C1CCCCN1C(=O)Cc1cc(C(F)(F)F)cc(C(F)(F)F)c1)N1CCC(N2CCCCC2)CC1 (stereo unspecified) | 4.3 nM |
| CN(CC(c1ccccc1)N1CCN(C2CCCCC2)CC1)C(=O)Cc1cc(C(F)(F)F)cc(C(F)(F)F)c1 (stereo unspecified) | 2 nM |
| O=C(Cc1cc(C(F)(F)F)cc(C(F)(F)F)c1)NCC(c1cccc(F)c1)N1CCC(N2CCCCC2)CC1 (stereo unspecified) | 4.6 nM |
| CN(CCc1cc(C(F)(F)F)cc(C(F)(F)F)c1)C(=O)C(Cc1c[nH]c2ccccc12)N1CCN(C2CCCCC2)CC1 (stereo unspecified) | 12 nM |
| COc1ccc(OC)c(C(CNC(=O)Cc2cc(C(F)(F)F)cc(C(F)(F)F)c2)N2CCC(N3CCCCC3)CC2)c1 (stereo unspecified) | 110 nM |
| CN(CC(c1cccc(C(F)(F)F)c1F)N1CCC(N2CCCCC2)CC1)C(=O)Cc1cc(C(F)(F)F)cc(C(F)(F)F)c1 (stereo unspecified) | 1.4 nM |
| CN(CC(c1ccccc1Br)N1CCC(N2CCCCC2)CC1)C(=O)Cc1cc(C(F)(F)F)cc(C(F)(F)F)c1 (stereo unspecified) | 1.1 nM |
| CN(CC(c1cccc2c1OCO2)N1CCC(N2CCCCC2)CC1)C(=O)C(c1ccccc1)c1ccccc1 (stereo unspecified) | 22 nM |
| COc1ccccc1C(CNC(=O)Cc1cc(C(F)(F)F)cc(C(F)(F)F)c1)N1CCN(C2Cc3ccccc3C2)CC1 (stereo unspecified) | 7.2 nM |
| COc1ccccc1C(CNC(=O)Cc1cc(C(F)(F)F)cc(C(F)(F)F)c1)N1CCCCC1 (stereo unspecified) | 250 nM |
| CN(CC(c1cccc2c1OCO2)N1CCC(N2CCCCC2)CC1)C(=O)Cc1ccccc1Br (stereo unspecified) | 6 nM |
| CN(CC(c1cccc2c1OCO2)N1CCC(N2CCCCC2)CC1)C(=O)Cc1ccccc1Cl (stereo unspecified) | 12 nM |
| O=C(Cc1cc(C(F)(F)F)cc(C(F)(F)F)c1)NCC(c1ccc(F)c(F)c1)N1CCC(N2CCCCC2)CC1 (stereo unspecified) | 3.3 nM |
| COc1ccccc1C(CNC(=O)Cc1cc(C(F)(F)F)cc(C(F)(F)F)c1)N1CCC(N2CCCCC2)CC1 (stereo unspecified) | 2.4 nM |

From ChEMBL document CHEMBL1133521, “Multiple-conformation and protonation-state representation in 4D-QSAR: the neurokinin-1 receptor system” (J Med Chem, 2000)
